For data set [1], the system named is MOLM-13 cells. The experiment in a line: Proliferation assay, MOLM-13 (CellTiter-Glo, 7 days). The format is cell-based, human. An outline of the steps:
(§1)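 Cells were seeded at line-specific low densities for linear growth, exposed to 3.16-fold serial compound dilutions at 0.1% DMSO, and incubated 7 days at 37 °C, 5% CO2. Viability was read by CellTiter-Glo 2.0 luminescence; IC50 came from one-site fits of % inhibition, normalized between DMSO-treated cells (100%) and a day-0 plate (0%).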

Data set [2] deals with MV4;11 cells. In words: Proliferation assay, MV4;11 (CellTiter-Glo, 7 days). It is filed as cell-based, human. Particulars: Homo sapiens, MV4-11, 168 h, read-out: MV-4-11 IC50. An outline of the steps:
as §1
(In general: ATP-based viability assays read luminescence as a measure of living cells.)

Data set [3] deals with hERG (Homo sapiens (Human), UniProt Q12809). In words: hERG assay 1 (standard), SyncroPatch 384PE. The note with it: CHO cells, room temperature, up to 40 uM. The format is cell-based. An outline of the steps:
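Automated patch clamp on hERG-expressing CHO-K1 cells at room temperature, +60/−40 mV protocol every 15 s. Six-point cumulative concentrations 139 nM to 40 uM (0.33% DMSO final); IC50 from one-site fit of % inhibition. Wells required ≥30 MegaOhm seal, current >0.2 nA, Z prime >0.4.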
Background: Block of hERG is tested as a sign of cardiac risk.

Data set [4] is described as follows: Human liver microsomes (HLMs) intrinsic clearance assay. The format is in vitro ADME. Particulars: human, microsomes, pH 7.4, HLM CLint. A general note: Liver microsomes are a subcellular fraction often used to study metabolism.

For orientation: IC50 means the concentration at which inhibition is half-maximal. A word on the microsomal CLint: it is the capacity of the preparation to metabolise the compound, expressed as a volume cleared per time.

SMILES strings stand for the structures. Read-outs that look alike come from different tables or passages of the source. Bounds are passed on as bounds.

hERG, sequence (Q12809 whole entry): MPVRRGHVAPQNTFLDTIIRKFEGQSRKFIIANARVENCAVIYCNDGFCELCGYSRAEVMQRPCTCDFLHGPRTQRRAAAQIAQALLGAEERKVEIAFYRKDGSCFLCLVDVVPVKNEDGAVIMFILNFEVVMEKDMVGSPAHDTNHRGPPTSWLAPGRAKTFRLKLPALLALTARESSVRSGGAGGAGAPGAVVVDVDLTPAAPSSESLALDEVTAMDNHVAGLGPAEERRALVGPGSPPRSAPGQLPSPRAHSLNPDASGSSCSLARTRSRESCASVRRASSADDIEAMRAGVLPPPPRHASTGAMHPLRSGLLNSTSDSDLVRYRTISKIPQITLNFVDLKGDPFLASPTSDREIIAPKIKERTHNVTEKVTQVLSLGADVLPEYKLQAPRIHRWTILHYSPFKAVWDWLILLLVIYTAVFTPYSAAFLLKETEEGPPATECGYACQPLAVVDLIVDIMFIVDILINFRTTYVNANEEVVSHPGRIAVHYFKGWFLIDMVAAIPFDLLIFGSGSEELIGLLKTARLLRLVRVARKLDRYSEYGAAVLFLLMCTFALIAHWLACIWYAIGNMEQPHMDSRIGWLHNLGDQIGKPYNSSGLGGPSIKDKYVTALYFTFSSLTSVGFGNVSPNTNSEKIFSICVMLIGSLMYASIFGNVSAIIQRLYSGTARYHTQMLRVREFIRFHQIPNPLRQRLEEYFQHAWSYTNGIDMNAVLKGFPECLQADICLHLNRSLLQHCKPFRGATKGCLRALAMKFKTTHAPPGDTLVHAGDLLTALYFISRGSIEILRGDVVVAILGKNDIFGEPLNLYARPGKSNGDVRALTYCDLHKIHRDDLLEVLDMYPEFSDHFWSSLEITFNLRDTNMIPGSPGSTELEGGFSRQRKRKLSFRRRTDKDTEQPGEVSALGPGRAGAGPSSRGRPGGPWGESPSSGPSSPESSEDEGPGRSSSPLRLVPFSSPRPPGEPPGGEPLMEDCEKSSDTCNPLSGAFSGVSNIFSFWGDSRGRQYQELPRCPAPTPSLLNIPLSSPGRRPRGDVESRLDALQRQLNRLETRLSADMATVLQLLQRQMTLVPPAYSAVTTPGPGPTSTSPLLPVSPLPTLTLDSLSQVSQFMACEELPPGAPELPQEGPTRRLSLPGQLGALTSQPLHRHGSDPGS

With `CC(C)c1ncsc1-c1cc(F)ccc1-n1cc(C(=O)C2CCN(C(=O)[C@H]3N[C@@H]4CC[C@H]3C4)CC2)c2ccncc21.O=CO` [Example 42, (1-((1R,3S,4S)-2-Azabicyclo[2.2.1]heptane-3-carbonyl)piperidin-4-yl)(1-(4-fluoro-2-(4-isopropylthiazol-5-yl)phenyl)-1H-pyrrolo[2,3-c]pyridin-3-yl)methanone 1·formic acid], the IC50 in data set [1] (Homo sapiens, MOLM-13, 168 h) is 40 nM; in data set [2], 43 nM; in data set [3], > 40000 nM. The microsomal CLint at 1 µM in data set [4] was determined as 219 µL/min/mg.
The like results for `CC(C)N(C(=O)c1cc(F)ccc1-n1cc(C(=O)C2CCN(C(=O)[C@H]3N[C@@H]4CC[C@H]3C4)CC2)c2c(F)cncc21)C(C)C.O=CO` [Example 44, 2-(3-(1-((1R,3S,4S)-2-Azabicyclo[2.2.1]heptane-3-carbonyl)piperidine-4-carbonyl)-4-fluoro-1H-pyrrolo[2,3-c]pyridin-1-yl)-5-fluoro-N,N-diisopropylbenzamide 1·formic acid] were, in that order, 73 nM, 65 nM, > 40000 nM and 17 µL/min/mg.
As to `CCN(C(=O)c1cc(F)ccc1-n1c(C)c(C(=O)C2CCN(C(=O)[C@H]3N[C@@H]4CC[C@H]3C4)CC2)c2ccncc21)C(C)C` [Example 46, 2-(3-(1-((1R,3S,4S)-2-Azabicyclo[2.2.1]heptane-3-carbonyl)piperidine-4-carbonyl)-2-methyl-1H-pyrrolo[2,3-c]pyridin-1-yl)-N-ethyl-5-fluoro-N-isopropylbenzamide], the IC50 in data set [1] (Homo sapiens, MOLM-13, 168 h) was 52 nM; in data set [2], 37 nM; in data set [3], > 40000 nM. In data set [4], this compound returned a microsomal CLint at 1 µM of 50 µL/min/mg.
On to `CCN(C(=O)c1cc(F)ccc1-n1c(C)c(C(=O)C2CCN(C(=O)[C@H]3NC[C@@H]4C[C@@H]43)CC2)c2ccncc21)C(C)C` [Example 47, 2-(3-(1-((1S,2S,5R)-3-Azabicyclo[3.1.0]hexane-2-carbonyl)piperidine-4-carbonyl)-2-methyl-1H-pyrrolo[2,3-c]pyridin-1-yl)-N-ethyl-5-fluoro-N-isopropylbenzamide], for which the IC50 was 42 nM in data set [1], 33 nM in data set [2] and > 40000 nM in data set [3]. Also, the intrinsic clearance (microsomal CLint) at 1 µM in data set [4] turned out to be 54 µL/min/mg.
Turning to `Cc1c(C(=O)C2CCN(C(=O)[C@H]3NC[C@@H]4C[C@@H]43)CC2)c2ccncc2n1-c1ccc(F)cc1-c1cnccc1C(C)C` [Example 54, (1-((1S,2S,5R)-3-Azabicyclo[3.1.0]hexane-2-carbonyl)piperidin-4-yl)(1-(4-fluoro-2-(4-isopropylpyridin-3-yl)phenyl)-2-methyl-1H-pyrrolo[2,3-c]pyridin-3-yl)methanone], the IC50 worked out at 49 nM in data set [1] (Homo sapiens, MOLM-13, 168 h); 40 nM in data set [2]; 13100 nM in data set [3]. In data set [4], this compound yielded an intrinsic clearance (microsomal CLint) at 1 µM of 73 µL/min/mg.

Values taken from patent publication US20240335431A1, “1-H-PYRROLO[2,3-c]PYRIDINE COMPOUNDS” (Acerta Pharma B.V., priority 2023, published 2024).
